Laboratory results as given in US12162890B2 (Novartis AG, priority 2015, dated 2024).

What follows are compounds tested against HEK293 cells with stable expression of the GRIN1 gene and tetracycline-inducible expression of the GRIN2B gene (NMDA receptor, NR2B) (Homo sapiens, UniProt Q13224) (assay: Fluo-8 Ca2+ flux assay: reversal of Ro 25-6981-mediated suppression of the Ca2+ response to co-agonist (glutamate/glycine)). Conditions: reversal of the Ro 25-6981 suppression of the Ca2+ response to co-agonist (glutamate/glycine).
Chain of HEK293 cells with stable expression of the GRIN1 gene and tetracycline-inducible expression of the GRIN2B gene (NMDA receptor, NR2B) (Q13224 27-1484, other chains not shown): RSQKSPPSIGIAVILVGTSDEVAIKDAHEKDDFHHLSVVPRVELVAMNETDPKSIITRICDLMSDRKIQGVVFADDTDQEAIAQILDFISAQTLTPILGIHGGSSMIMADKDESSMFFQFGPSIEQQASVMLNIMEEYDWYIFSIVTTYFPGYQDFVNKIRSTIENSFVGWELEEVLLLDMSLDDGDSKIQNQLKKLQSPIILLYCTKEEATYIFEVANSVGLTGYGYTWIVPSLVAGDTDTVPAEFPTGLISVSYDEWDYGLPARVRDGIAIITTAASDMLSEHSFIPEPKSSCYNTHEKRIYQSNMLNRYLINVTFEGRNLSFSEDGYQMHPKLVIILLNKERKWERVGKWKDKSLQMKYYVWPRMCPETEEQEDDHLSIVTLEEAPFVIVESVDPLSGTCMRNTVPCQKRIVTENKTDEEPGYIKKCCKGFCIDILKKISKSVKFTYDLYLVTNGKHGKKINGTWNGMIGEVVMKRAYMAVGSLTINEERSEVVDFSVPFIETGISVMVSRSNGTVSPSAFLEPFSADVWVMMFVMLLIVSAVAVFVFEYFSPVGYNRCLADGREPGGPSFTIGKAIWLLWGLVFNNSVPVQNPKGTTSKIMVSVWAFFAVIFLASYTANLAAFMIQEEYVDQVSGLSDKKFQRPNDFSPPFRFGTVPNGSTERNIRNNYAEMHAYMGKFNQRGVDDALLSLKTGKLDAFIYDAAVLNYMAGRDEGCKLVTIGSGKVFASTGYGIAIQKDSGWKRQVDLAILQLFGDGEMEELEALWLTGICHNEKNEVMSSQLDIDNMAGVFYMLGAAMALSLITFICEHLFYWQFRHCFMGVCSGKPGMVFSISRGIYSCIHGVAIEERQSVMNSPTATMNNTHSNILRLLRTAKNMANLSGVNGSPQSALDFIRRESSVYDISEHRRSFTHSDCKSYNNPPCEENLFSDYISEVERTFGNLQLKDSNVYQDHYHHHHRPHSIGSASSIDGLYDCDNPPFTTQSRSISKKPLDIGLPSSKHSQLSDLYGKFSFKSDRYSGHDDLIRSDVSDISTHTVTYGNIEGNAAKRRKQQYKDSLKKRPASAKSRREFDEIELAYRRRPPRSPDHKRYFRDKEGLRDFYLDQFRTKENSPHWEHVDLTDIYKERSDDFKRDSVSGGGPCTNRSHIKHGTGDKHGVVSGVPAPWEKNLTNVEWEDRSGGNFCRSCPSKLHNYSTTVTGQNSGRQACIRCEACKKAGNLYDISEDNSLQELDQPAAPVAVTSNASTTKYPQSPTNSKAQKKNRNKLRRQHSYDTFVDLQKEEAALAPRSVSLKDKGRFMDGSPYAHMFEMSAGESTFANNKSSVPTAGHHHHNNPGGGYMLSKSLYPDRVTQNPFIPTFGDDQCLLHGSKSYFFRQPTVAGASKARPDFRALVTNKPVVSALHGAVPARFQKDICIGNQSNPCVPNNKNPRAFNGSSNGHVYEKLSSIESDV
Format: cell-based
Further: test concentration or dose not given here.

| Compound | Response Recovered (%) |
| --- | --- |
| O=C(Cn1ccc2scc(-c3ccc(Cl)c(C(F)(F)F)c3)c2c1=O)N1CCCC1 [Example 1, 3-(4-chloro-3-(trifluoromethyl)phenyl)-5-(2-oxo-2-(pyrrolidin-1-yl)ethyl)thieno[3,2-c]pyridin-4(5H)-one] | 83 |
| O=C(Cn1ccc2scc(-c3ccc(Cl)c(F)c3)c2c1=O)N1CCCC1 [Example 2, 3-(4-chloro-3-fluorophenyl)-5-(2-oxo-2-(pyrrolidin-1-yl)ethyl)thieno[3,2-c]pyridin-4(5H)-one] | 34 |
| O=C(Cn1ccc2scc(-c3ccc(F)c(Cl)c3)c2c1=O)N1CCCC1 [Example 3, 3-(3-chloro-4-fluorophenyl)-5-(2-oxo-2-(pyrrolidin-1-yl)ethyl)thieno[3,2-c]pyridin-4(5H)-one] | 60 |
| O=C(Cn1ccc2scc(-c3ccc(Cl)c(C(F)(F)F)c3)c2c1=O)N1CCC(F)C1 (stereo not drawn) [Example 4, 3-(4-chloro-3-(trifluoromethyl)phenyl)-5-(2-(3-fluoropyrrolidin-1-yl)-2-oxoethyl)thieno[3,2-c]pyridin-4(5H)-one] | 107 |
| O=C(Cn1ccc2scc(-c3ccc(Cl)c(C(F)(F)F)c3)c2c1=O)N1CC(F)(F)C1 [Example 5, 3-(4-chloro-3-(trifluoromethyl)phenyl)-5-(2-(3,3-difluoroazetidin-1-yl)-2-oxoethyl)thieno[3,2-c]pyridin-4(5H)-one] | 139 |
| O=C(Cn1ccc2scc(-c3ccc(Cl)c(F)c3)c2c1=O)N1CC(F)(F)C1 [Example 6, 3-(4-chloro-3-fluorophenyl)-5-(2-(3,3-difluoroazetidin-1-yl)-2-oxoethyl)thieno[3,2-c]pyridin-4(5H)-one] | 41 |
| O=C(Cn1ccc2scc(-c3ccc(Cl)c(F)c3)c2c1=O)N1CCC(F)C1 (stereo not drawn) [Example 7, 3-(4-chloro-3-fluorophenyl)-5-(2-(3-fluoropyrrolidin-1-yl)-2-oxoethyl)thieno[3,2-c]pyridin-4(5H)-one] | 49 |
| O=C(Cn1ccc2scc(-c3ccc(F)c(Cl)c3)c2c1=O)N1CC(F)(F)C1 [Example 8, 3-(3-Chloro-4-fluorophenyl)-5-[2-(3,3-difluoro-azetidin-1-yl)-2-oxo-ethyl]-5H-thieno[3,2-c]pyridin-4-one] | 66 |
| O=C(Cn1ccc2scc(-c3ccc(F)c(Cl)c3)c2c1=O)N1CCC(F)C1 (stereo not drawn) [Example 9, 3-(3-Chloro-4-fluoro-phenyl)-5-[2-(3-fluoro-pyrrolidin-1-yl)-2-oxo-ethyl]-5H-thieno[3,2-c]pyridin-4-one] | 81 |
| O=C(Cn1ccc2scc(-c3ccc(Cl)c(Cl)c3)c2c1=O)N1CCC(F)C1 (stereo not drawn) [Example 10, 3-(3,4-dichlorophenyl)-5-(2-(3-fluoropyrrolidin-1-yl)-2-oxoethyl)thieno[3,2-c]pyridin-4(5H)-one] | 102 |
| O=C(Cn1ccc2scc(-c3ccc(F)c(C(F)(F)F)c3)c2c1=O)N1CCC(F)C1 (stereo not drawn) [Example 11, 3-(4-fluoro-3-(trifluoromethyl)phenyl)-5-(2-(3-fluoropyrrolidin-1-yl)-2-oxoethyl)thieno[3,2-c]pyridin-4(5H)-one] | 99 |
| O=C(Cn1ccc2scc(-c3cnc(Cl)c(Cl)c3)c2c1=O)N1CCC(F)C1 (stereo not drawn) [Example 12, 3-(5,6-dichloropyridin-3-yl)-5-(2-(3-fluoropyrrolidin-1-yl)-2-oxoethyl)thieno[3,2-c]pyridin-4(5H)-one] | 35 |
| O=C(Cn1ccc2scc(-c3ccc(C(F)(F)F)c(Cl)c3)c2c1=O)N1CCC(F)C1 (stereo not drawn) [Example 13, 3-(3-chloro-4-(trifluoromethyl)phenyl)-5-(2-(3-fluoropyrrolidin-1-yl)-2-oxoethyl)thieno[3,2-c]pyridin-4(5H)-one] | 90 |
| O=C(Cn1ccc2scc(-c3ccc(Cl)c(C(F)(F)F)c3)c2c1=O)N1C[C@@H](F)[C@@H](F)C1 [Example 14, 3-(4-chloro-3-(trifluoromethyl)phenyl)-5-(2-((3S,4R)-3,4-difluoropyrrolidin-1-yl)-2-oxoethyl)thieno[3,2-c]pyridin-4(5H)-one] | 99 |
| O=C(Cn1ccc2scc(-c3ccc(Cl)c(C(F)(F)F)c3)c2c1=O)N1CC[C@H](F)C1 [Example 15, (S)-3-(4-chloro-3-(trifluoromethyl)phenyl)-5-(2-(3-fluoropyrrolidin-1-yl)-2-oxoethyl)thieno[3,2-c]pyridin-4(5H)-one] | 95 |
| O=C(Cn1ccc2scc(-c3ccc(Cl)c(Cl)c3)c2c1=O)N1C[C@@H](F)[C@@H](F)C1 [Example 16, 3-(3,4-dichlorophenyl)-5-(2-((3S,4R)-3,4-difluoropyrrolidin-1-yl)-2-oxoethyl)thieno[3,2-c]pyridin-4(5H)-one] | 107 |
| O=C(Cn1ccc2scc(-c3ccc(Cl)c(C(F)(F)F)c3)c2c1=O)N1CC[C@@H](F)C1 [Example 17, (R)-3-(4-chloro-3-(trifluoromethyl)phenyl)-5-(2-(3-fluoropyrrolidin-1-yl)-2-oxoethyl)thieno[3,2-c]pyridin-4(5H)-one] | 99 |

| Compound | Response Recovered (%) |
| --- | --- |
| CC1(F)CN(C(=O)Cn2ccc3scc(-c4ccc(Cl)c(F)c4)c3c2=O)C1 [Example 18, 3-(4-chloro-3-fluorophenyl)-5-(2-(3-fluoro-3-methylazetidin-1-yl)-2-oxoethyl)thieno[3,2-c]pyridin-4(5H)-one] | 120 |
| CC1(F)CN(C(=O)Cn2ccc3scc(-c4cnc(F)c(Cl)c4)c3c2=O)C1 [Example 19, 3-(5-chloro-6-fluoropyridin-3-yl)-5-(2-(3-fluoro-3-methylazetidin-1-yl)-2-oxoethyl)thieno[3,2-c]pyridin-4(5H)-one] | 35 |
| CC1(F)CN(C(=O)Cn2ccc3scc(-c4ccc(F)c(F)c4)c3c2=O)C1 [Example 20, 3-(3,4-difluorophenyl)-5-(2-(3-fluoro-3-methylazetidin-1-yl)-2-oxoethyl)thieno[3,2-c]pyridin-4(5H)-one] | 41 |
| CC1(F)CN(C(=O)Cn2ccc3scc(-c4ccc(Cl)c(C(F)(F)F)c4)c3c2=O)C1 [Example 21, 3-(4-chloro-3-(trifluoromethyl)phenyl)-5-(2-(3-fluoro-3-methylazetidin-1-yl)-2-oxoethyl)thieno[3,2-c]pyridin-4(5H)-one] | 120 |
| Cc1cc(-c2csc3ccn(CC(=O)N4CC(C)(F)C4)c(=O)c23)ccc1Cl [Example 22, 3-(4-chloro-3-methylphenyl)-5-(2-(3-fluoro-3-mehtylazetidin-1-yl)-2-oxoethyl)thieno[3,2-c]pyridin-4(5H)-one] | 130 |
| Cc1cc(-c2csc3ccn(CC(=O)N4CC(C)(F)C4)c(=O)c23)ccc1F [Example 23, 5-(2-(3-fluoro-3-methylazetidin-1-yl)-2-oxoethyl)-3-(4-fluoro-3-methylphenyl)thieno[3,2-c]pyridin-4(5H)-one] | 100 |
| O=C(CCn1ccc2scc(-c3ccc(Cl)c(C(F)(F)F)c3)c2c1=O)N1CCC(F)C1 (stereo not drawn) [Example 24, 3-(4-chloro-3-(trifluoromethyl)phenyl)-5-(3-(3-fluoropyrrolidin-1-yl)-3-oxopropyl)thieno[3,2-c]pyridin-4(5H)-one] | 3 |
| O=C(Cn1ccc2scc(-c3cnc(Cl)c(C(F)(F)F)c3)c2c1=O)N1CCC(F)C1 (stereo not drawn) [Example 25, 3-(6-chloro-5-(trifluoromethyl)pyri-din-3-yl)-5-(2-(3-fluoropyrrolidin-1-yl)-2-oxoethyl)thieno[3,2-c]pyridin-4(5H)-one] | 28 |
| O=C(Cn1ccc2scc(-c3ccc(F)c(C(F)(F)F)c3)c2c1=O)N1CC[C@H](F)C1 [Example 26, (S)-3-(4-fluoro-3-(trifluoromethyl)phen-yl)-5-(2-(3-fluoropyrrolidin-1-yl)-2-oxoethyl)thieno[3,2-c]pyridin-4(5H)-one] | 103 |
| O=C(Cn1ccc2scc(-c3ccc(F)c(C(F)(F)F)c3)c2c1=O)N1CC[C@@H](F)C1 [Example 27, (R)-3-(4-fluoro-3-(trifluoromethyl)phen-yl)-5-(2-(3-fluoropyrrolidin-1-yl)-2-oxoethyl)thieno[3,2-c]pyridin-4(5H)-one] | 81 |
| O=C(Cn1ccc2scc(-c3ccc(F)c(C(F)(F)F)c3)c2c1=O)N1C[C@@H](F)[C@@H](F)C1 [Example 28, 5-(2-((3S,4R)-3,4-difluoropyrrolidin-1-yl)-2-oxoethyl)-3-(4-fluoro-3-(trifluoromethyl)phen-nyl)thieno[3,2-c]pyridin-4(5H)-one] | 94 |
| O=C(Cn1ccc2scc(-c3ccc(Cl)c(Cl)c3)c2c1=O)N1CC[C@@H](F)C1 [Example 29, (R)-3-(3,4-dichlorophenyl)-5-(2-(3-fluoropyrrolidin-1-yl)-2-oxoethyl)thieno[3,2-c]pyridin-4(5H)-one] | 104 |
| O=C(Cn1ccc2scc(-c3ccc(Cl)c(Cl)c3)c2c1=O)N1CC[C@H](F)C1 [Example 30, (S)-3-(3,4-dichlorophenyl)-5-(2-(3-fluoropyrrolidin-1-yl)-2-oxoethyl)thieno[3,2-c]pyridin-4(5H)-one] | 96 |
| O=C(Cn1ccc2scc(-c3ccc(Cl)s3)c2c1=O)N1CCC(F)C1 (stereo not drawn) [Example 31, 3-(5-chlorothiophen-2-yl)-5-(2-(3-fluoropyrrolidin-1-yl)-2-oxoethyl)thieno[3,2-c]pyridin-4(5H)-one] | 34 |
| O=C(Cn1ccc2scc(-c3ccc(F)c(C(F)(F)F)c3)c2c1=O)N1CC(F)C1 [Example 32, 3-(4-fluoro-3-(trifluoromethyl)phen-yl)-5-(2-(3-fluoroazetidin-1-yl)-2-oxoethyl)thieno[3,2-c]pyridin-4(5H)-one] | 60 |
| O=C(Cn1ccc2scc(-c3ccc(Cl)c(Cl)c3)c2c1=O)N1CC(F)C1 [Example 33, 3-(3,4-dichlorophenyl)-5-(2-(3-fluoroazetidin-1-yl)-2-oxoethyl)thieno[3,2-c]pyridin-4(5H)-one] | 54 |
